A short description of data set [1]: Antioxidative activity in salad oil, Rancimat method (induction time). As to conditions: 100ppm in salad oil, 120°C, Control 3.40. On the procedure:
We investigated the antioxidative activity of the acylated derivatives of (-)-epigallocatechin, one of the most powerful antioxidants in tea. […] (The reaction was conducted at a temperature of 120°C).

Data set [2] is described as follows: Solubility in fats and oils (turbidity of salad oil, absorbance at 660nm). As to conditions: sample added to salad oil (Honen Corporation) at 100ppm; turbidity as absorbance at 660nm; Control 0.057; lower = better dissolved. The data set is classed as physicochemical. As for the experimental part: Each sample was added to salad oil (Honen Corporation) in a concentration of 100ppm, and turbidity was determined by measuring absorbance at 660nm.

On to `CCC(=O)O[C@@H]1Cc2c(O)cc(O)cc2O[C@@H]1c1cc(O)c(O)c(O)c1` [(-)-3-0-Propionyl epigallocatechin, (-)-3-0-propionyl epigallocatechin], for which, in data set [1], the “Induction Time” value was 6.02 h. As for `Oc1cc(O)c2c(c1)O[C@H](c1cc(O)c(O)c(O)c1)[C@H](O)C2` [(-)-Epigallocatechin, (-)-epigallocatechin], in data set [1], the “Induction Time” value worked out at 6.03 h. The “OD 660” value in data set [2] was 0.277.

On to `CCCC(=O)O[C@@H]1Cc2c(O)cc(O)cc2O[C@@H]1c1cc(O)c(O)c(O)c1` [(-)-3-0-Butyryl epigallocatechin, (-)-3-0-butyryl-epigallocatechin], for which, in data set [1], the “Induction Time” value stood at 6.07 h.

The values are drawn from EP0618203A1, “3-O-acylated catechins and method of producing same” (MITSUI NORIN CO., LTD., priority 1993, dated 1994).
